Assay results reported in US20230079687A1, “ALKYLRESORCINOL HOMOLOGUES AS ANTIOXIDANTS” (The Penn State Research Foundation, priority 2021, published 2023).
“Also recorded” adds a separate entry of the source.

What was measured:
[1] = Antioxidant activity in the low-moisture model cracker system (overall lipid oxidation study); conditions: 153 μmol antioxidant
Experimental: Based on the concentrations of the individual AR stock solutions previously determined, an appropriate volume, containing 153 μmol of the respective individual AR homologue, was measured into plastic centrifuge tubes to prepare individual AR homologue treatments. […] The same procedure was carried out with 10 mM stock solutions of orcinol, α-tocopherol, and butylated hydroxytoluene (BHT) and all treatments were dried under a stream of nitrogen. Ethanol (1.0 mL) was added to the dried treatments (and a control treatment containing no antioxidant) and mixed with 10 g of melted ISO. […] Antioxidant-treated ISO was melted at 90° C. for 10 minutes and mixed in a stand mixer (KSM95, KitchenAid, Benton Harbor, Mich., U.S.) using a beater blade for 1 minute (speed 2). […] flour, salt, and baking soda were added and mixed using a beater blade for 1 minute (speed 2). Water was added and mixed using a dough hook for 1 minute (speed 2). The additional flour was sprinkled onto the surface of a baking mat and incorporated into the dough by kneading by hand (30 folds). The dough was flattened by passing it through a pasta roller (KPSA, KitchenAid, Benton Harbor, Mich., U.S.) twice (thickness setting 2). The sheeted dough was cut into 2.5 cm×2.5 cm crackers and baked on an ungreased baking sheet for 9 minutes at 163° C. (FD 53-UL, Binder, Tuttlingen, Germany). […] Individual AR homologues (C17:0, C19:0, C21:0, C23:0, C25:0) were added separately and as a mixture (AR Mix) to ISO and subsequently incorporated into the cracker samples. The antioxidant activities of the AR homologues in crackers were compared to orcinol (a water-soluble AR), conventional antioxidants (i.e., α-tocopherol, BHT), and a control treatment (i.e., no added antioxidant). The crackers were allowed to autoxidize in the absence of light and primary (i.e., lipid hydroperoxides) and secondary products (i.e., headspace hexanal) of lipid oxidation were measured as a function of time.

[2] = Formation of lipid hydroperoxides in antioxidant-treated crackers during storage; conditions: for course of lipid hydroperoxide formation after the lag phase (in words) / storage day at which lipid hydroperoxide concentration began to increase (end of lag phase): FIG. 1; for order of induction periods for lipid hydroperoxides: time to reach threshold [Hydroperoxides]=0.1 mM/g cracker, FIG. 3A; for storage day at which lipid hydroperoxide concentration began to increase (end of lag phase): autoxidized at 55° C. in the absence of light
Experimental: (§1) Based on the concentrations of the individual AR stock solutions previously determined, an appropriate volume, containing 153 μmol of the respective individual AR homologue, was measured into plastic centrifuge tubes to prepare individual AR homologue treatments. A treatment containing a mixture of the individual AR homologues, at their natural abundance in rye bran, was prepared by combining 25.3% of C17:0, 32.0% of C19:0, 22.6% of C21:0, 12.5% of C23:0, and 7.6% of C25:0. The same procedure was carried out with 10 mM stock solutions of orcinol, α-tocopherol, and butylated hydroxytoluene (BHT) and all treatments were dried under a stream of nitrogen. Ethanol (1.0 mL) was added to the dried treatments (and a control treatment containing no antioxidant) and mixed with 10 g of melted ISO. The antioxidant activity of each treatment was tested at 153 μmol because this corresponds to 500 ppm of C21:0 in the final cracker which is a typical antioxidant concentration used in bakery applications.
(§2) Antioxidant-treated ISO was melted at 90° C. for 10 minutes and mixed in a stand mixer (KSM95, KitchenAid, Benton Harbor, Mich., U.S.) using a beater blade for 1 minute (speed 2). Sifted flour, salt, and baking soda were added and mixed using a beater blade for 1 minute (speed 2). Water was added and mixed using a dough hook for 1 minute (speed 2). The additional flour was sprinkled onto the surface of a baking mat and incorporated into the dough by kneading by hand (30 folds). The dough was flattened by passing it through a pasta roller (KPSA, KitchenAid, Benton Harbor, Mich., U.S.) twice (thickness setting 2). The sheeted dough was cut into 2.5 cm×2.5 cm crackers and baked on an ungreased baking sheet for 9 minutes at 163° C. (FD 53-UL, Binder, Tuttlingen, Germany). After cooling to room temperature, crackers were coarsely crumbled using a mortar and pestle and weighed (0.5 g) into 10 mL amber glass headspace vials (Supelco Analytical, Bellefonte, Pa., U.S.), sealed with stainless steel screw caps with PTFE/silicone septa (Supelco Analytical, Bellefonte, Pa., U.S.), and allowed to autoxidize at 55° C. in the absence of light for up to 160 days. Crackers were analyzed for lipid hydroperoxides, headspace hexanal, and AR loss every 5 days for day 0-50, every 10 days for day 51-100, and every 20 days for the remainder of the storage time.
Lipid hydroperoxides were determined according to the method described by Shantha & Decker (1994) with slight modifications. Cracker samples (0.1 g) were finely ground using a mortar and pestle and mixed with 5.0 mL chloroform/methanol (2:1 (v/v)) by vortexing (10 seconds, 3 times). The hydroperoxide-containing lipid fraction was extracted and isolated by centrifugation at 2500×g for 10 minutes (Centrifuge 5702, A-4-38 Rotor, Eppendorf, Hamburg, Germany). To this extract (1.0 mL), 16.7 μL of an iron chloride solution (prepared by mixing 50 mL 66 mM FeSO4 in water with 50 mL 38 mM BaCl2 in 0.4 N HCl) was added followed by 16.7 μL of ammonium thiocyanate (3.9 M in water), and allowed to react at room temperature for 20 minutes. The absorbance of the samples was measured at 500 nm (GENESYS 180 UV-Vis Spectrophotometer, Thermo Fisher Scientific, Waltham, Mass., U.S.) and lipid hydroperoxides were quantified based on a standard curve prepared using cumene hydroperoxide.
Individual AR homologues (C17:0, C19:0, C21:0, C23:0, C25:0) were added separately and as a mixture (AR Mix) to ISO and subsequently incorporated into the cracker samples. The antioxidant activities of the AR homologues in crackers were compared to orcinol (a water-soluble AR), conventional antioxidants (i.e., α-tocopherol, BHT), and a control treatment (i.e., no added antioxidant). The crackers were allowed to autoxidize in the absence of light and primary (i.e., lipid hydroperoxides) and secondary products (i.e., headspace hexanal) of lipid oxidation were measured as a function of time.

[3] = Formation of headspace hexanal in antioxidant-treated crackers during storage; conditions: for order of induction periods for headspace hexanal: time to reach threshold [Hexanal]=1.0 mM/g cracker, FIG. 3B; for storage day at which headspace hexanal began to increase (end of lag phase): autoxidized at 55° C. in the absence of light, FIG. 2
Experimental: as §1, §2
Cracker samples were prepared for GC-MS analysis by adding 10 μL of 100 mg/L 2-methypentanal (internal standard) in methanol directly through the capped headspace vial's septum. The GC system consisted of a 7890B gas chromatograph (Agilent, Santa Clara, Calif., U.S.) with sample introduction by means of an autosampler (Robotic MultiPurpose Sampler, Gerstel, Mülheim, Germany). Samples were equilibrated for 10 minutes at 55° C. with continuous shaking. A 50/30 μm divinylbenzene/carboxen/polydimethylsiloxane (DVB/CAR/PDMS) (1 cm) (Supelco Analytical, Bellefonte, Pa., U.S.) solid phase microextraction (SPME) fiber was exposed to the sample headspace for 2 minutes at 55° C. The SPME fiber was desorbed for 6 minutes at 250° C. in the injection port equipped with a SPME inlet liner at a split ratio of 10:1. Volatile aldehydes were separated on a Rtx-WAX capillary column (30 m, 0.25 mm i.d., 0.25 μm film thickness) (Restek, Bellefonte, Pa., U.S.). An oven program was followed to separate the different volatile aldehydes at a constant helium carrier gas flow rate of 1.22 mL/min. The oven program was as follows: hold at 40° C. for 1 minute; ramp at 10° C./min to 75° C.; ramp at 100° C./min to 250° C.; hold at 250° C. for 1.75 minutes. Detection and quantification of hexanal and 2-methylpentanal was achieved using a single quadrupole mass spectrometer (5977B, Agilent, Santa Clara, Calif., U.S.) coupled to the GC. The MS transfer line, quadrupole, and detector temperatures were set to 250° C., 230° C., 150° C., respectively. Mass spectra were collected in electron impact mode.

[4] = literature, same low-moisture model cracker system; cited from earlier work
[5] = 153 μmol antioxidant in crackers, 55° C.
[6] = 153 μmol antioxidant in crackers
[7] = 153 μmol antioxidant in crackers, 55° C., compared to control crackers

| SMILES | antioxidant activity in the low-moisture model cracker system (in words) [1] | course of lipid hydroperoxide formation after the lag phase (in words) [2, 5] | order of induction periods for lipid hydroperoxides [2] | order of induction periods for headspace hexanal [3] | storage day at which lipid hydroperoxide concentration began to increase (end of lag phase) [2, 6] | storage day at which headspace hexanal began to increase (end of lag phase) [3, 6] | antioxidant activity against formation of lipid hydroperoxides and hexanal [4] | activity concluded from lipid hydroperoxide formation [2, 7] | activity concluded from headspace hexanal formation [3, 7] |
| --- | --- | --- | --- | --- | --- | --- | --- | --- | --- |
| CCCCCCCCCCCCCCCCCCCCCCCCCc1cc(O)cc(O)c1 [C25:0] | more effective than BHT | slow, steady increase | AR Mix≈C23:0>C25:0>(C21:0≈C19:0)>(C19:0≈BHT)>(BHT≈orcinol)>(orcinol≈C17:0)>control>>α-tocopherol | C23:0>BHT>C25:0 AR Mix>C21:0>C19:0≈C17:0>control≈orcinol>>α-tocopherol | – | – | – | – | – |
| CCCCCCCCCCCCCCCCCCCCCc1cc(O)cc(O)c1 [C21:0] | – | – | AR Mix≈C23:0>C25:0>(C21:0≈C19:0)>(C19:0≈BHT)>(BHT≈orcinol)>(orcinol≈C17:0)>control>>α-tocopherol | C23:0>BHT>C25:0 AR Mix>C21:0>C19:0≈C17:0>control≈orcinol>>α-tocopherol | 25 days | 70 days | – | – | – |
| CCCCCCCCCCCCCCCCCCCc1cc(O)cc(O)c1 [C19:0] | – | – | AR Mix≈C23:0>C25:0>(C21:0≈C19:0)>(C19:0≈BHT)>(BHT≈orcinol)>(orcinol≈C17:0)>control>>α-tocopherol | C23:0>BHT>C25:0 AR Mix>C21:0>C19:0≈C17:0>control≈orcinol>>α-tocopherol | 25 days | 50 days | – | – | – |
| O=C(/C=C/c1ccc(O)c(O)c1)O[C@H](Cc1ccc(O)c(O)c1)C(=O)O [rosmarinic acid] | – | – | – | – | – | – | weak antioxidant and prooxidant activity | – | – |
| CCCCCCCCCCCCCCCCCc1cc(O)cc(O)c1 [C17:0] | – | – | AR Mix≈C23:0>C25:0>(C21:0≈C19:0)>(C19:0≈BHT)>(BHT≈orcinol)>(orcinol≈C17:0)>control>>α-tocopherol | C23:0>BHT>C25:0 AR Mix>C21:0>C19:0≈C17:0>control≈orcinol>>α-tocopherol | 25 days | 45 days | – | – | – |
| CCCCCCCCCCCCCCCCCCCCOC(=O)C(Cc1ccc(O)c(O)c1)OC(=O)C=Cc1ccc(O)c(O)c1 (centres unmarked) [eicosyl ester] | – | – | – | – | – | – | stronger antioxidant activity than rosmarinic acid and the dodecyl ester | – | – |
| Cc1cc(C(C)(C)C)c(O)c(C(C)(C)C)c1 [BHT, butylated hydroxytoluene] | strong antioxidant activity | slow, steady increase | AR Mix≈C23:0>C25:0>(C21:0≈C19:0)>(C19:0≈BHT)>(BHT≈orcinol)>(orcinol≈C17:0)>control>>α-tocopherol | C23:0>BHT>C25:0 AR Mix>C21:0>C19:0≈C17:0>control≈orcinol>>α-tocopherol | 25 days | – | – | – | – |
| CCCCCCCCCCCCCCCCCCCCCCCc1cc(O)cc(O)c1 [C23:0] | optimum activity; also recorded: more effective than BHT | slow, steady increase | AR Mix≈C23:0>C25:0>(C21:0≈C19:0)>(C19:0≈BHT)>(BHT≈orcinol)>(orcinol≈C17:0)>control>>α-tocopherol | C23:0>BHT>C25:0 AR Mix>C21:0>C19:0≈C17:0>control≈orcinol>>α-tocopherol | – | still in the lag phase of lipid oxidation at the conclusion of the study | – | – | – |
| Cc1c(C)c2c(c(C)c1O)CC[C@@](C)(CCC[C@H](C)CCC[C@H](C)CCCC(C)C)O2 [α-tocopherol] | strong prooxidant activity | – | AR Mix≈C23:0>C25:0>(C21:0≈C19:0)>(C19:0≈BHT)>(BHT≈orcinol)>(orcinol≈C17:0)>control>>α-tocopherol | C23:0>BHT>C25:0 AR Mix>C21:0>C19:0≈C17:0>control≈orcinol>>α-tocopherol | immediately upon storage | 5 days | – | prooxidant activity | prooxidant behavior |
